How the values were obtained:
NMDA NR1/NR2B receptor = molecular target: T1, NMDA NR1/NR2B receptor (Homo sapiens, UniProt Q05586+Q13224); assay: NMDA NR1/NR2B FLIPR calcium assay in HEK293 cells; format: cell-based; conditions: HEK293 with tetracyclin-inducible NR1/NR2B; 20 μM glycine/1 μM glutamate; compounds of the invention; read-out: IC50 (in vitro affinity as obtained in the FLIPR assay)
T1 construct: host or cells: HEK293, tetracycline-inducible
Method: A human HEK293 cell line with tetracyclin-inducible expression of NMDA NR1/NR2B receptor was used as a test system for compound efficacy and potency. The cell line was purchased from ChanTest, Catalog #CT6121. Compound activity was determined by measuring the effect of compounds on intracellular calcium concentration induced by glycine/glutamate agonism in a FLIPRtetra system (Molecular Devices).
The cells were obtained as frozen cells in cryo-vials and stored until use at −150° C. Cells were grown in culture medium (DMEM/F12, 10% FBS, 5 μg/mL Blasticidin, 150 μg/mL Zeozin, 500 μg/mL Geneticin). […] For sub-culturing the cells were detached from flasks by Versene. For the assay, cells were detached, washed twice with induction medium (DMEM/F12 without glutamine, 10% FBS, 2 μg/mL Tetracycline, 2 mM Ketamine) and seeded to 384 well pure coat amine plates (BD 359324, 50000 cells per well in 50 μl) 48 h prior to assay in induction medium.
The test compounds were dissolved in 100% DMSO at a concentration of 10 mM and in a first step diluted in DMSO to a concentration of 5 mM, followed by serial dilution steps in 100% DMSO. Dilution factor and number of dilution steps may vary according to needs. Typically 8 different concentrations by 1:5 dilutions were prepared in duplicate, further intermediate dilutions (1:37.5) of the substances were carried out with aqueous assay buffer (137 mM NaCl, 4 mM KCl, 1.8 mM CaCl, 10 mM HEPES, 10 mM Glucose, pH 7,4) resulting in a compound concentration 3 times above the final test concentration and DMSO at 2.7% resulting in 0.9% final DMSO concentration in the assay.
At the assay day cells were washed 3× with assay buffer, 10 μL buffer remained in the wells after washing. 10 μL Ca kit loading buffer (AAT Bioquest) was added to the cells and the plates were incubated with lid for 60 minutes at r.t. 20 μl assay buffer containing 60 μM glycine (20 μM final) and 3 μM glutamate (1 μM final) was added to column 1-23. Fluorescence (indicating the calcium influx as a result of the NR1/NR2B ion channel activation) was read on the FLIPRtetra device for 60 seconds to monitor the glutamate induced effects. After 2 minutes 20 μL of compound or controls (row 1-22) in assay buffer were carefully added to the wells. […] The average of 2 measurements at 5 minutes and 5 min 10 seconds after compound addition is calculated and further used for IC50 calculations. Each assay microtiter plate contained wells (in column 23 or 24) with DMSO controls instead of compound as controls for glycine/glutamate induced fluorescence (high controls) and wells with 1 μM of a reference NR2b NAM as low controls (Compound 22; reference: Layton, Mark E et al, ACS Chemical Neuroscience 2011, 2(7), 352-362).
The output file of the reader contains the well number and measured average fluorescence units. For data evaluation and calculation, the measurement of the low control was set as 0% control and the measurement of the high control was set as 100% control. The IC50 values were calculated using the standard 4 parameter logistic regression formula. Calculation: [y=(a−d)/(1+(x/c)^B)+d], a=low value, d=high value; x=conc M; c=IC50 M; b=slope.

human MDR1 (P-gp) = molecular target: T2, human MDR1 (P-gp) (Homo sapiens, UniProt P08183); assay: MDCK assay MDR-1 (p-GP) permeability; format: in vitro ADME; conditions: dog, MDCK-MDR1 monolayers; for efflux ratio at 2 h: pH 7.4, Papp (b-a)/Papp (a-b); for Papp A→B at 2 h: apical-to-basal, pH 7.4, 1 or 10 μM
T2 construct: expressed in transfected cells; host or cells: MDCKII (Madin-Darby canine kidney)
T2 sequence (P08183 whole entry): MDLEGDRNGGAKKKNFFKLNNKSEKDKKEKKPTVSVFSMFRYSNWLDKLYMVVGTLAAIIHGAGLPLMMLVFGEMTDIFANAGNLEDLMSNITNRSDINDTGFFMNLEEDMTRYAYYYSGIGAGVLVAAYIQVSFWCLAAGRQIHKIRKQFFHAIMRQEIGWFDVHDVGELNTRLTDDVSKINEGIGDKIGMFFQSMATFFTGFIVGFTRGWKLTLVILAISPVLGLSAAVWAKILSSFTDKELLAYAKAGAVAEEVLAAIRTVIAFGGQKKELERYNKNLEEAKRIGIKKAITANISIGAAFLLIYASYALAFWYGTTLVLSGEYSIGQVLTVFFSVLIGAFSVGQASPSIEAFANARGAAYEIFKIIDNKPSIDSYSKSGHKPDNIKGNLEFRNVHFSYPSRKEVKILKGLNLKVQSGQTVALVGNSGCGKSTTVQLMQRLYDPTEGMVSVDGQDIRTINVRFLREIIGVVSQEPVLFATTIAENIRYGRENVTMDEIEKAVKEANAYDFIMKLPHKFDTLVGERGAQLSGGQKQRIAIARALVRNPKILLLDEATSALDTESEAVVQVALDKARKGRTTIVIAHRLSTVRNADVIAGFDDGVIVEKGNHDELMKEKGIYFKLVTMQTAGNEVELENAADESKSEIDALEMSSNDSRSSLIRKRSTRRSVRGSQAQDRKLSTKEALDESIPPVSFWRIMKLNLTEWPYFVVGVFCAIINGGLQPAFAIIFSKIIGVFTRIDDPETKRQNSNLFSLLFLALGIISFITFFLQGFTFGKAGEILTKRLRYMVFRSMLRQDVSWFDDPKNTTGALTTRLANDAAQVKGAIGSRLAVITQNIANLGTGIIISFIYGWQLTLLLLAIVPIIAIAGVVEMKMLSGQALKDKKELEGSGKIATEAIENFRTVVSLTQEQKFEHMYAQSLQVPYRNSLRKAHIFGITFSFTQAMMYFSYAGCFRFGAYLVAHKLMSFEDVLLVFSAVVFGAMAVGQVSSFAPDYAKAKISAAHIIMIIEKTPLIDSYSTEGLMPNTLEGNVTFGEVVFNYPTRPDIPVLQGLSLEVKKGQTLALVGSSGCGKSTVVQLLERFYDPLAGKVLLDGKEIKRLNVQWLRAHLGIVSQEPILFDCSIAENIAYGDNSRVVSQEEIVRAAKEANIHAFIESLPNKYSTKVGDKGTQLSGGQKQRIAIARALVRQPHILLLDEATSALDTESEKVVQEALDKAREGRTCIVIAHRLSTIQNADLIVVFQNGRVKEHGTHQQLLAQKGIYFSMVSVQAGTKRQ
Method: The MDCK assays provide information on the potential of a compound to pass the blood brain barrier. Permeability measurements across polarized, confluent MDCK-MDR1 cell monolayers grown on permeable filter supports are used as an in vitro absorption model: apparent permeability coefficients (PE) of the compounds across the MDCK-MDR1 cell monolayers are measured (pH 7.4, 37° C.) in apical-to-basal (AB) and basal-to-apical (BA) transport direction. The AB permeability (PEAB) represents drug absorption from the blood into the brain and the BA permeability (PEBA) drug efflux from the brain back into the blood via both, passive permeability as well as active transport mechanisms mediated by efflux and uptake transporters that are expressed on the MDCK-MDR1 cells, predominantly by the overexpressed human MDR1. Identical or similar permeabilities in both transport directions indicate passive permeation, vectorial permeability points to additional active transport mechanisms. Higher PEBA than PEAB (PEBA/PEAB>5) indicates the involvement of active efflux mediated by MDR1, which might compromise the goal to achieve sufficient brain exposure. Therefore, this assay provides valuable support for selection of compounds applicable for further in vivo testing. High permeability not limited by efflux at the blood brain barrier is a favourable characteristic for compounds that are to be used for drugs acting primarily in the CNS. Consequently, to ensure high permeability at the blood brain barrier, it is highly preferred to minimize the efflux (efflux<5) at MDR1 transporter.
Apparent permeability coefficients (Papp) of the compounds across the MDCK-MDR1 monolayers (MDCKII cells transfected with human MDR1 cDNA expression plasmid) are measured in apical-to-basal (AB) and basal-to-apical (BA) direction.
MDCK-MDR1 cells (6×10^5 cells/cm^2) are seeded on filter inserts (Corning, Transwell, polycarbonate, 0.4 μm pore size) and cultured for 9 to 10 days. Compounds dissolved in DMSO stock solution (1-20 mM) are diluted with HTP-4 aqueous buffer (128.13 mM NaCl, 5.36 mM KCl, 1 mM MgSO4, 1.8 mM CaCl2), 4.17 mM NaHCO3, 1.19 mM Na2HPO4, 0.41 mM NaH2PO4, 15 mM HEPES, 20 mM glucose, pH 7.4) supplemented with 0.25% BSA to prepare the transport solutions (final concentration: 1 or 10 μM, final DMSO <=0.5%). The transport solution is applied to the apical or basolateral donor side for measuring A-B or B-A permeability, respectively. The receiver side contains HTP-4 buffer supplemented with 0.25% BSA. Samples are collected at the start and end of experiment from the donor and at various time intervals for up to 2 hours also from the receiver side for concentration measurement by HPLC-MS/MS.
Sampled receiver volumes are replaced with fresh receiver solution. Efflux ratio is calculated dividing the Papp (b-a) values by the Papp (a-b) values.

[1] = Metabolic stability in human liver microsomes; format: in vitro ADME; conditions: pooled human liver microsomes, pH 7.6, 37° C., 1 mg/mL microsomal protein, 1 μM compound, NADPH 1 mM, read-out: Half-life - t½ human liver microsomes
Description: Stability in human liver microsomes refers to the susceptibility of compounds to bio-transformation in the context of selecting and/or designing drugs with favorable pharmacokinetic properties. The primary site of metabolism for many drugs is the liver. Human liver microsomes contain the cytochrome P450s (CYPs), and thus represent a model system for studying drug metabolization in vitro. Enhanced stability in human liver microsomes is associated with several advantages, including increased bioavailability and adequate half-life, which can enable lower and less frequent dosing of patients. Thus, enhanced stability in human liver microsomes is a favorable characteristic for compounds that are to be used for drugs.
The metabolic degradation of the test compound was assayed at 37° C. with pooled human liver microsomes. The final incubation volume of […] per time point contains TRIS buffer pH 7.6 at room temperature (0.1 M), magnesium chloride (5 mM aqueous solution), microsomal protein (1 mg/mL for human) and the test compound at a final concentration of 1 μM. Following a short preincubation period at 37° C., the reactions were initiated by addition of betanicotinamide adenine dinucleotide phosphate, reduced form (NADPH, 1 mM), and terminated by transferring an aliquot into solvent after different time points. After centrifugation (10000 g, 5 min), an aliquot of the supernatant was assayed by LC-MS/MS for the amount of parent compound. The half-life was determined by the slope of the semi-logarithmic plot of the concentration-time profile.

T1 sequence (Q13224 27-1484, other chains not shown): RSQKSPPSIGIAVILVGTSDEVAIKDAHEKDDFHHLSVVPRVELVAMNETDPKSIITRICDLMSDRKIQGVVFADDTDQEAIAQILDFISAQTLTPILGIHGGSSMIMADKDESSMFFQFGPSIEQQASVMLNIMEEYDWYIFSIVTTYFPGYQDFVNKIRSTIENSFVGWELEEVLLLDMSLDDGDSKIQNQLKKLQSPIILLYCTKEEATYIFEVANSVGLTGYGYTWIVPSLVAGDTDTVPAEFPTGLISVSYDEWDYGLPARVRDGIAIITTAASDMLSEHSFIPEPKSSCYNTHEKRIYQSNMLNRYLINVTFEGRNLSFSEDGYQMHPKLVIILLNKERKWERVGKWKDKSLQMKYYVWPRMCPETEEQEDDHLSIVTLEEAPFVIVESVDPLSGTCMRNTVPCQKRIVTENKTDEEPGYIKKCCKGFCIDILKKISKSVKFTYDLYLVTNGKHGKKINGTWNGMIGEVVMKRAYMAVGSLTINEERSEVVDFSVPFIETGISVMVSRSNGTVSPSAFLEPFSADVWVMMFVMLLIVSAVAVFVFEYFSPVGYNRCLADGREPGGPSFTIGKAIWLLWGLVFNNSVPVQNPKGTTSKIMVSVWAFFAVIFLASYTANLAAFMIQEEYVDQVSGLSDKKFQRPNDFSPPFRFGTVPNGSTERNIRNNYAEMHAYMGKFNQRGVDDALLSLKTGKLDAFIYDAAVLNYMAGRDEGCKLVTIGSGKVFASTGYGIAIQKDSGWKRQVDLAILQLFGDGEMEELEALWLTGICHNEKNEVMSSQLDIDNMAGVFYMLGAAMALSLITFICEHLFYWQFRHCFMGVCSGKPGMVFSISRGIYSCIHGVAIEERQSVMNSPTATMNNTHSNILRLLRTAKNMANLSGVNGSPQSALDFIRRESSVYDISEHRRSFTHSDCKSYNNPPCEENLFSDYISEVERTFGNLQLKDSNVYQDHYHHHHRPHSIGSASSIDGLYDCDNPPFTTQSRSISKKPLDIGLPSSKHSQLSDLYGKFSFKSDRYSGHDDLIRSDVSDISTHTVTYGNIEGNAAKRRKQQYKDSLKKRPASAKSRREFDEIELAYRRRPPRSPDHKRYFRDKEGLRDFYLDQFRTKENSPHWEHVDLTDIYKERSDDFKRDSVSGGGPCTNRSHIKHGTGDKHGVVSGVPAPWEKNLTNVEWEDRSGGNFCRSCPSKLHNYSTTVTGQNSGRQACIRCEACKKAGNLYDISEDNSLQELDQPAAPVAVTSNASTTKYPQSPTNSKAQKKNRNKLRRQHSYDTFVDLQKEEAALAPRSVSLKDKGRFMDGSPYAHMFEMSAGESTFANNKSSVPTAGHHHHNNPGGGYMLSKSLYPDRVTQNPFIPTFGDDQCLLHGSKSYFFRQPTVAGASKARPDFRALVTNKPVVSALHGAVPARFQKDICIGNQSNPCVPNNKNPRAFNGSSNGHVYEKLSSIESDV

IC50 (NMDA NR1/NR2B receptor) [nM] | efflux ratio at 2 h (human MDR1 (P-gp)) | Papp A→B at 2 h (human MDR1 (P-gp)) [×10⁻⁶ cm/s] | half-life at 1 μM [1] [min] | Structure (SMILES)
90 | 1.6 | 33 | 31.5 | Cc1ccc(COC(=O)N2CCO[C@H](c3nc4nccnc4[nH]3)C2)c(F)c1 [Example 1]
725 | 0.7 | 61 | 8 | Cc1cccc(COC(=O)N2CCO[C@H](c3nc4nccnc4[nH]3)C2)c1F [Example 3]
382 | 0.8 | 57 | > 130 | O=C(OCc1ccccc1F)N1CCO[C@H](c2nc3nccnc3[nH]2)C1 [Example 4]
477 | 1.4 | 40 | > 130 | O=C(OCc1ccc(F)cc1F)N1CCO[C@H](c2nc3nccnc3[nH]2)C1 [Example 5]
735 | 2.9 | 23 | > 130 | O=C(OCc1ccc(F)cc1)N1CCO[C@H](c2nc3nccnc3[nH]2)C1 [Example 10]
210 | 1.8 | 31 | 36 | Cc1ccc(COC(=O)N2CCO[C@H](c3nc4nccnc4[nH]3)C2)cc1 [Example 12]

— US12398143B2, “Imidazopyrazine derivatives and the use thereof as medicament” (Boehringer Ingelheim International GmbH, priority 2019, dated 2025)
